From patent US10316020B2, “Indane derivatives and the use thereof as soluble guanylate cyclase activators” (NOVARTIS AG, priority 2015, dated 2019)
pEC50: −log10 of the molar value.

Molecular target: T1, soluble guanylate cyclase (GUCYA3/GUCYB3) overexpressed in CHO cells (Homo sapiens, UniProt Q02108+Q02153)
T1 construct: expressed in transfected cells
T1 sequence (Q02108 1-690 partner): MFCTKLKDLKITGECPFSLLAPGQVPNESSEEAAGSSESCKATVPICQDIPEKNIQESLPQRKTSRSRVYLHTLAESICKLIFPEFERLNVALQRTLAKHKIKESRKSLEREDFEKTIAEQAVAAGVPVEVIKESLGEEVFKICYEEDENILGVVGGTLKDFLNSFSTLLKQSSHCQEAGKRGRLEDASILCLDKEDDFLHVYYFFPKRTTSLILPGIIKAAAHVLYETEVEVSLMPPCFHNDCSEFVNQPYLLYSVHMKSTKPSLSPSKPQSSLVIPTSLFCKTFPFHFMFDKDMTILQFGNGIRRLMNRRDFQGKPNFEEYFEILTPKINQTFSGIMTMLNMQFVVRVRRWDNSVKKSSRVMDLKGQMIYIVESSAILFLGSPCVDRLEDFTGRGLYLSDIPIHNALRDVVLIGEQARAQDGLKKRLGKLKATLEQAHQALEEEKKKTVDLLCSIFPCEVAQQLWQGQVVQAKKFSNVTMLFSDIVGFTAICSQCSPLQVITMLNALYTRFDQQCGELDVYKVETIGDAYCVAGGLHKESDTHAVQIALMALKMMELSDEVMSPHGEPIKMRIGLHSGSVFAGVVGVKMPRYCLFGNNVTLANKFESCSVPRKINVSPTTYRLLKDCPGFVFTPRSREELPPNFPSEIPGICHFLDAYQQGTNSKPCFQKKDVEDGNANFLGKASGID
T1 sequence (Q02153 1-619): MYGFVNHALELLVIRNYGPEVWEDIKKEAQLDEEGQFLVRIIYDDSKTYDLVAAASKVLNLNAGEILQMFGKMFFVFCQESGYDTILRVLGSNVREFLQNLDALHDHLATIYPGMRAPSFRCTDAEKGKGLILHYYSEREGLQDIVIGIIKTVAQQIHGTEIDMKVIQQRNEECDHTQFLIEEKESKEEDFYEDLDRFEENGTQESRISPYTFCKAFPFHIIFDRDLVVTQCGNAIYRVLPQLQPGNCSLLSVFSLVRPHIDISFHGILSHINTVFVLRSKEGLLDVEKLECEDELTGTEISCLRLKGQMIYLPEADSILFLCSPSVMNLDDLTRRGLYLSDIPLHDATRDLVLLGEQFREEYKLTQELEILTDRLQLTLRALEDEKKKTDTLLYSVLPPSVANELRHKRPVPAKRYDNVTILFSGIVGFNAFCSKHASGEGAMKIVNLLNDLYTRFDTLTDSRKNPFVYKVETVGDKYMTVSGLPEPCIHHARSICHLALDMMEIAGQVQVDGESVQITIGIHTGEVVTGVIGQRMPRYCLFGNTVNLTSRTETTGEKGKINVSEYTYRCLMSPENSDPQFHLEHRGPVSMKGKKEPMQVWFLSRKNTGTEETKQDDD
Assay: CHO cellular assay (cGMP production, HTRF)
Assay type: cell-based
Conditions: CHO GUCY clone 8E10; assay buffer with 1 mM IBMX, 20 uM ODQ; 1 h at room temperature; cGMP HTRF; quantification limit 0.0005 μM; read-out: Mean EC50
Excerpt: Chinese hamster ovary (CHO) cells overexpressing soluble guanylate cyclase were generated to test the effect of sGC activators in a cellular context. Human cDNAs for GUCYA3 (RefSeq: NM_000856.3) and GUCYB3 (RefSeq: NM_000857.1) were amplified by PCR from a HUVEC (Human Umbilical Vein Endothelial Cells) cDNA library and cloned into mammalian expression vectors. CHO K1 cells (ATCC CCL-61) were transfected using Lipofectamine 2000 following manufacturer's instructions and stably expressing clones were identified by antibiotic selection. CHO GUCY clone 8E10 was used for subsequent experiments.
Cells were seeded at a density of 3000 cells/well in white 384-well proxyplates (Perkin Elmer) and incubated overnight, then the medium was removed and cells were washed with assay buffer (HBSS, 0.1% BSA, 1 mM IBMX, 20 uM ODQ). sGC activators were serially diluted in DMSO, then diluted in assay buffer prior to adding to cells (10 ul/well, final DMSO concentration 0.5%). Cells were incubated with compounds for 1 h at room temperature, then assayed for cGMP production using Cisbio cGMP HTRF kit (62GM2PEC) according to manufacturer's instructions.
The EC50s are calculated based on the amount of cGMP interpolated from the standard curve, using a 4-parameter sigmoidal dose-response.
Compounds of invention are active on sGC activation. Data in Table 1 collected using the assay of Biological Example 1.

Structure (SMILES) | pEC50
CCc1cc(N[C@@H]2CCc3cccc(-c4cccc(-n5ncc(C(=O)O)c5OC)c4)c32)ccc1C1CCN(C(=O)C2CC2)CC1 [Example 3B, (−)-(R)-1-(3-(3-((4-(1-(Cyclopropanecarbonyl)piperidin-4-yl)-3-ethylphenyl)amino)-2,3-dihydro-1H-inden-4-yl)phenyl)-5-methoxy-1H-pyrazole-4-carboxylic acid] | 7.54
CCc1cc(NC2CCc3cccc(-c4cccc(-n5ncc(C(=O)O)c5OC)c4)c32)ccc1C1CCN(C(=O)[C@H](C)O)CC1 (single isomer, unassigned; (-)) [Example 4B] | 6.96
CCc1cc(NC2CCc3cccc(-c4cccc(-n5ncc(C(=O)O)c5N)c4)c32)ccc1C1CCN(C(=O)C2CC2)CC1 (single isomer, unassigned; (+)) [Example 9A, (+)-5-Amino-1-(3-(3-((4-(1-(cyclopropanecarbonyl)piperidin-4-yl)-3-ethylphenyl)amino)-2,3-dihydro-1H-inden-4-yl)phenyl)-1H-pyrazole-4-carboxylic acid] | 8.40
CCc1nc(NC2CCc3cccc(-c4cccc(-n5ncc(C(=O)O)c5OC)c4)c32)ccc1C1=CCN(C(=O)[C@H](C)O)CC1 (single isomer, unassigned) [Example 11B, 1-(3-((R or S)-3-((2-ethyl-1′-((S)-2-hydroxypropanoyl)-1′,2′,3′,6′-tetrahydro-[3,4′-bipyridin]-6-yl)amino)-2,3-dihydro-1H-inden-4-yl)phenyl)-5-methoxy-1H-pyrazole-4-carboxylic acid] | 8.85
CCc1nc(NC2CCc3cccc(-c4cccc(-n5ncc(C(=O)O)c5OC)c4)c32)ccc1C1=CCN(C(=O)C2CC2)CC1 (single isomer, unassigned; (-)) [Example 10B, (−)-1-(3-(3-((1′-(Cyclopropanecarbonyl)-2-ethyl-1′,2′,3′,6′-tetrahydro-[3,4′-bipyridin]-6-yl)amino)-2,3-dihydro-1H-inden-4-yl)phenyl)-5-methoxy-1H-pyrazole-4-carboxylic acid] | 6.83
CCc1nc(NC2CCc3cccc(-c4cccc(-n5ncc(C(=O)O)c5OC)n4)c32)ccc1C1=CCN(C(=O)[C@H](C)O)CC1 (single isomer, unassigned) [Example 17B, 1-(6-((S or R)-3-((2-ethyl-1′-((S)-2-hydroxypropanoyl)-1′,2′,3′,6′-tetrahydro-[3,4′-bipyridin]-6-yl)amino)-2,3-dihydro-1H-inden-4-yl)pyridin-2-yl)-5-methoxy-1H-pyrazole-4-carboxylic acid] | 8.46
CCc1cc(O[C@H]2CCc3cccc(-c4cccc(-n5ncc(C(=O)O)c5N)n4)c32)ccc1C1CCN(C(=O)C2CC2)CC1 [Example 19, (S)-5-Amino-1-(6-(3-(4-(1-(cyclopropanecarbonyl)piperidin-4-yl)-3-ethylphenoxy)-2,3-dihydro-1H-inden-4-yl)pyridin-2-yl)-1H-pyrazole-4-carboxylic acid] | 8.52
CCc1cc(C[C@H]2CCc3cccc(-c4cccc(-n5ncc(C(=O)O)c5N)n4)c32)ccc1C1CCN(C(=O)C2CC2)CC1 [Example 23, (R)-5-Amino-1-(6-(3-(4-(1-(cyclopropanecarbonyl)piperidin-4-yl)-3-ethylbenzyl)-2,3-dihydro-1H-inden-4-yl)pyridin-2-yl)-1H-pyrazole-4-carboxylic acid] | > 9.30
CCc1cc(C[C@@H]2CCc3cccc(-c4cccc(-n5ncc(C(=O)O)c5OC)c4)c32)ccc1C1CCN(C(=O)C2CC2)CC1 [Example 1B, (−)-(S)-1-(3-(3-(4-(1-(Cyclopropanecarbonyl)piperidin-4-yl)-3-ethylbenzyl)-2,3-dihydro-1H-inden-4-yl)phenyl)-5-methoxy-1H-pyrazole-4-carboxylic acid] | 7.80
CCc1nc(NC2CCc3cccc(-c4cccc(-n5ncc(C(=O)O)c5OC)c4)c32)ccc1C1=CCN(C(=O)[C@H](C)O)CC1 (single isomer, unassigned) [Example 11A, 1-(3-((S or R)-3-((2-Ethyl-1′-((S)-2-hydroxypropanoyl)-1′,2′,3′,6′-tetrahydro-[3,4′-bipyridin]-6-yl)amino)-2,3-dihydro-1H-inden-4-yl)phenyl)-5-methoxy-1H-pyrazole-4-carboxylic acid] | 7.44
CCc1nc(NC2CCc3cccc(-c4cccc(-n5ncc(C(=O)O)c5OC)c4)c32)ccc1C1=CCN(C(=O)C2CC2)CC1 (single isomer, unassigned; (+)) [Example 10A, (+)-1-(3-(3-((1′-(Cyclopropanecarbonyl)-2-ethyl-1′,2′,3′,6′-tetrahydro-[3,4′-bipyridin]-6-yl)amino)-2,3-dihydro-1H-inden-4-yl)phenyl)-5-methoxy-1H-pyrazole-4-carboxylic acid] | > 9.30

Further lines, results first:

pEC50 | Structure (SMILES)
> 9.30 | CCc1cc(O[C@H]2CCc3cccc(-c4cccc(-n5ncc(C(=O)O)c5OC)c4)c32)ccc1C1CCN(C(=O)[C@H](C)O)CC1 [Example 6, 1-(3-((S)-3-(3-Ethyl-4-(1-((S)-2-hydroxypropanoyl)piperidin-4-yl)phenoxy)-2,3-dihydro-1H-inden-4-yl)phenyl)-5-methoxy-1H-pyrazole-4-carboxylic acid]
> 9.30 | CCc1cc(NC2CCc3cccc(-c4ccc(OC)c(-n5ncc(C(=O)O)c5OC)c4)c32)ccc1C1CCN(C(=O)C2CC2)CC1 (single isomer, unassigned; (+)) [Example 8A, (+)-1-(5-(3-((4-(1-(Cyclopropanecarbonyl)piperidin-4-yl)-3-ethylphenyl)amino)-2,3-dihydro-1H-inden-4-yl)-2-methoxyphenyl)-5-methoxy-1H-pyrazole-4-carboxylic acid]
> 9.30 | CCc1cc(NC2CCc3cccc(-c4ccc(C)c(-n5ncc(C(=O)O)c5OC)c4)c32)ccc1C1CCN(C(=O)C2CC2)CC1 (single isomer, unassigned; (+)) [Example 7A, (+)-1-(5-(3-((4-(1-(Cyclopropanecarbonyl)piperidin-4-yl)-3-ethylphenyl)amino)-2,3-dihydro-1H-inden-4-yl)-2-methylphenyl)-5-methoxy-1H-pyrazole-4-carboxylic acid]
> 9.30 | CCc1cc(C[C@H]2CCc3cccc(-c4cccc(-n5ncc(C(=O)O)c5N)c4)c32)ccc1C1CCN(C(=O)C2CC2)CC1 [Example 20, (+)-(R)-5-Amino-1-(3-(3-(4-(1-(cyclopropanecarbonyl)piperidin-4-yl)-3-ethylbenzyl)-2,3-dihydro-1H-inden-4-yl)phenyl)-1H-pyrazole-4-carboxylic acid]
> 9.30 | CCc1cc(C[C@H]2CCc3cccc(-c4cccc(-n5ncc(C(=O)O)c5NC)c4)c32)ccc1C1CCN(C(=O)C2CC2)CC1 [Example 21, (R)-1-(3-(3-(4-(1-(cyclopropanecarbonyl)piperidin-4-yl)-3-ethylbenzyl)-2,3-dihydro-1H-inden-4-yl)phenyl)-5-(methylamino)-1H-pyrazole-4-carboxylic acid]
> 9.30 | CCc1cc(O[C@H]2CCc3cccc(-c4cccc(-n5ncc(C(=O)O)c5OC)n4)c32)ccc1C1CCN(C(=O)C2CC2)CC1 [Example 14, (S)-1-(6-(3-(4-(1-(Cyclopropanecarbonyl)piperidin-4-yl)-3-ethylphenoxy)-2,3-dihydro-1H-inden-4-yl)pyridin-2-yl)-5-methoxy-1H-pyrazole-4-carboxylic acid]
